Experimental data taken from US20260209250A1, “CRYSTAL FORM OF KRAS G12D INHIBITOR AND PREPARATION METHOD THEREFOR” (priority 2022, published 2026).

Columns and labels:
[1] = Crystal form stability study (influencing factor experiments); assay type: physicochemical
Description: Samples of the crystal forms A, B, C, I, J, and K of the compound represented by formula (I) were taken, spread in open containers, and left to stand under conditions of light exposure (4500 Lux), high temperatures (40° C. and 60° C.), and high humidities (RH 75% and RH 92.5%) for 30 days to investigate their stability, and the results are shown in Table 16.

[2] = Long-term/accelerated stability; assay type: physicochemical
[3] = 40° C., 10 days, open container
[4] = 40° C., 30 days, open container
[5] = 60° C., 10 days, open container
[6] = 60° C., 30 days, open container
[7] = 75% RH, 10 days, open container
[8] = 75% RH, 30 days, open container
[9] = 92.5% RH, 5 days, open container
[10] = 92.5% RH, 10 days, open container
[11] = 92.5% RH, 30 days, open container
[12] = light exposure (4500 Lux), 5 days, open container
[13] = light exposure (4500 Lux), 10 days, open container
[14] = light exposure (4500 Lux), 30 days, open container

CCc1c(F)ccc2cc(O)cc(-c3nc4c5c(nc(OC[C@@]67CCCN6C[C@H](F)C7)nc5c3F)N3C[C@H]5CC[C@H](N5)[C@H]3CO4)c12 [Crystal form I, 5-Ethyl-6-fluoro-4-((5aS,6S,9R)-1-fluoro-12-(((2R,7aS)-2-fluorotetrahydro-1H-pyrrolizin-7a(5H)-yl)methoxy)-5a,6,7,8,9,10-hexahydro-5H-4-oxa-3,10a,11,13,14-pentaaza-6,9-methanonaphtho[1,8-ab]heptalen-2-yl)naphthalen-2-ol]
Color and state ([1]; 40° C., 5 days, open container): Off-white solid | Crystal form ([1]; 40° C., 5 days, open container): Did not change | Purity % ([1]; 40° C., 5 days, open container): 99.6% | Color and state [1, 3]: Off-white solid | Crystal form [1, 3]: Did not change | Purity % [1, 3]: 99.4% | Color and state [1, 4]: Off-white solid | Crystal form [1, 4]: Did not change | Purity % [1, 4]: 99.3% | Color and state ([1]; 60° C., 5 days, open container): Off-white solid | Crystal form ([1]; 60° C., 5 days, open container): Did not change | Purity % ([1]; 60° C., 5 days, open container): 99.6% | Color and state [1, 5]: Off-white solid | Crystal form [1, 5]: Did not change | Purity % [1, 5]: 99.4% | Color and state [1, 6]: Off-white solid | Crystal form [1, 6]: Did not change | Purity % [1, 6]: 99.3% | Color and state ([1]; 75% RH, 5 days, open container): Off-white solid | Crystal form ([1]; 75% RH, 5 days, open container): Did not change | Purity % ([1]; 75% RH, 5 days, open container): 99.6% | Color and state [1, 7]: Off-white solid | Crystal form [1, 7]: Did not change | Purity % [1, 7]: 99.6% | Color and state [1, 8]: Off-white solid | Crystal form [1, 8]: Did not change | Purity % [1, 8]: 99.6% | Color and state [1, 9]: Off-white solid | Crystal form [1, 9]: Did not change | Purity % [1, 9]: 99.5% | Color and state [1, 10]: Off-white solid | Crystal form [1, 10]: Did not change | Purity % [1, 10]: 99.5% | Color and state [1, 11]: Off-white solid | Crystal form [1, 11]: Did not change | Purity % [1, 11]: 99.6% | Color and state ([1]; Initial, 0 days): Off-white solid | Crystal form ([1]; Initial, 0 days): Crystal form I | Purity % ([1]; Initial, 0 days): 99.6% | Physical and chemical properties (conclusion of influencing factor experiments) ([1]; high temperatures and high humidities for 30 days): good physical and chemical properties | Color and state [1, 12]: Off-white solid | Crystal form [1, 12]: Did not change | Purity % [1, 12]: 99.6% | Color and state [1, 13]: Off-white solid | Crystal form [1, 13]: Did not change | Purity % [1, 13]: 99.5% | Color and state [1, 14]: Off-white solid | Crystal form [1, 14]: Did not change | Purity % [1, 14]: 99.2% | Purity % 1 month ([2]; 25° C./60% RH): 99.6% | Purity % 2 months ([2]; 25° C./60% RH): 99.6% | Purity % 3 months ([2]; 25° C./60% RH): 99.6% | Purity % Initial ([2]; 25° C./60% RH): 99.6% | Purity % 1 month ([2]; 40° C./75% RH): 99.6% | Purity % 2 months ([2]; 40° C./75% RH): 99.4% | Purity % 3 months ([2]; 40° C./75% RH): 99.6% | Purity % Initial ([2]; 40° C./75% RH): 99.6%
